Patent publication EP0443598A2, “Peptides inhibiting the blood coagulation, their process of preparation and their use” (BEHRINGWERKE Aktiengesellschaft, priority 1990, dated 1991)

Test system: Standard Humanplasma
Test: partial thromboplastin time (PTT) test
Assay type: biochemical, Human
Conditions: blank without peptide 38.8
Protocol: 10 mg des Peptids wurden in 1 ml Puffer (20 mM Tris, 150 mM NaCl pH 7.5) gelöst. Das Peptid wurde in der partiellen Thromboplastinzeit (PTT) gegenüber einem Peptid mit derselben Sequenz getestet, das anstelle von Phe(SO₃ H) jedoch Tyr enthielt.
100 Mikroliter Standard Humanplasma 100 Mikroliter Puffer (s.o.) 100 Mikroliter Kaolin/Pathromtin Reagenz (BEHRINGWERKE AG) 2 Minuten bei 37°C 100 Mikroliter CaCl₂-Lösung

[1] = Verdünnung 1:4 of peptide solution 10 mg in 1 ml buffer (20 mM Tris, 150 mM NaCl pH 7.5)
[2] = Verdünnung 1:8 of peptide solution 10 mg in 1 ml buffer
[3] = Verdünnung 1:16 of peptide solution 10 mg in 1 ml buffer
[4] = Verdünnung 1:32 of peptide solution 10 mg in 1 ml buffer
[5] = Verdünnung 1:64 of peptide solution 10 mg in 1 ml buffer
[6] = Verdünnung 1:128 of peptide solution 10 mg in 1 ml buffer
[7] = Verdünnung 1:256 of peptide solution 10 mg in 1 ml buffer
[8] = Verdünnung 1:512 of peptide solution 10 mg in 1 ml buffer
[9] = Verdünnung 1:1024 of peptide solution 10 mg in 1 ml buffer

| Substance | Gerinnungszeiten in Sekunden [1] [Sekunden] | Gerinnungszeiten in Sekunden [2] [Sekunden] | Gerinnungszeiten in Sekunden [3] [Sekunden] | Gerinnungszeiten in Sekunden [4] [Sekunden] | Gerinnungszeiten in Sekunden [5] [Sekunden] | Gerinnungszeiten in Sekunden [6] [Sekunden] | Gerinnungszeiten in Sekunden [7] [Sekunden] | Gerinnungszeiten in Sekunden [8] [Sekunden] | Gerinnungszeiten in Sekunden [9] [Sekunden] |
| --- | --- | --- | --- | --- | --- | --- | --- | --- | --- |
| Asn-Gly-Asp-Phe-Glu-Glu-Ile-Pro-Glu-Glu-Phe(SO₃H)-Leu-OH [Peptid lt. Beispiel] | 147.2 | 111.8 | 89.2 | 81.5 | 72.8 | 63.0 | 56.3 | 52.2 | 46.8 |
| Asn-Gly-Asp-Phe-Glu-Glu-Ile-Pro-Glu-Glu-Tyr-Leu-OH (NGDFEEIPEEYL; printed: Asn-Gly-Asp-Phe-Glu-Glu-Ile-Pro-Glu-Glu-Tyr-Leu-) [Peptid mit Tyr] | 105.2 | 80.5 | 71.0 | 65.0 | 57.7 | 52.8 | 47.3 | 44.7 | 41.7 |
